The values below come from patent US7910609B2, “Inhibitors of integrin alpha2beta1 with modified urea moiety” (The Trustees Of The University Of Pennsylvania, priority 2005, dated 2011).

In one experiment the target is T1, integrin α2β1 (Homo sapiens, UniProt P05556+P17301).
T1 construct: Human blood was obtained by venipuncture from healthy volunteers; endogenous in cells; host or cells: washed human platelets from blood of healthy volunteers
The experiment in a line: Platelet adhesion assay: washed human platelet binding to soluble type I collagen. It is filed as cell-based. Here is the method: The series of compounds was tested for the ability to block washed human platelet binding to soluble type I collagen. […] Further understanding was sought with respect to the SAR of the urea functionality and its spatial positioning.
(§1) Preparation of Washed Platelets. All Studies were Conducted Following IRB-approved protocols at the University of Pennsylvania. Human blood was obtained by venipuncture from healthy volunteers using 0.3% sodium citrate as anticoagulant, then acid-citrate-dextrose was added (1 mL per 10 mL blood). Platelet-rich plasma (PRP) was then prepared by centrifugation at 200 g for 20 min. Platelets were obtained from the PRP by addition of prostacyclin (PG I2: 0.1 μg/ml) followed by centrifugation at 1000 g for 10 min. The pelleted platelets were resuspended in HEPES/Tyrode's buffer (20 mM HEPES, 129 mM NaCl, 0.34 mM Na2HPO4, 2.9 mM KCl, 12 mM NaHCO3, 5 mM glucose, 1 mm MgCl2, pH 7.3) and repelleted by repeated PG I2 addition and centrifugation.
(§2) Platelet Adhesion Assays. Immulon 2 flat bottom 96-well Plates (Dynatech Labs, Burlington, Mass.) were coated with soluble type I collagen, fibronectin (FN) or osteopontin (OPN) (5 μg/ml) in PBS for 48 hrs at 4° C. The plates were then washed and blocked with BSA (5 mg/ml in PBS) for at least 24 hr. Adhesion assays using type I collagen contained test compound and 1.6×10^7 Platelets in GFP buffer in a final volume of 100 μl. The plates were then incubated for 30 min at 37° C. and washed with TBS (10 mM Tris, 150 mM NaCl, pH 7.4). Quantification of adherent platelets was performed as previously described.^[27] Briefly, the platelets were stained for acid phosphatase by adding 0.1 M sodium citrate (pH 5.4) with 0.1% Triton X-100 containing 5 mM p-nitrophenyl phosphate substrate (100 μl/well) and incubated for 40 min at 37° C. Color was then developed by the addition of 50 μl 2.0 M NaOH per well and the plates were read at 405 nm in a Molecular Devices Spectra Max M5 microplate reader. Adhesion to FN- and OPN-coated plates were performed similarly using a modified GFP buffer for resuspension (4 mM HEPES, 147 mM NaCl, 2.7 mM KCl, 0.35% BSA, 0.1% glucose, 1 mM MgCl2, 1 mM MnCl2, pH 7.4). Platelets were stimulated in OPN binding by addition of 20 μM ADP during incubation.^[28] The platelets in αvβ3-mediated binding to FN were pre-treated with 2 μg per mL ReoPro (abciximab, chimeric 7E3 Fab; Centocor, Malvern Pa.) for 20 minutes at RT.

In another experiment the target is T2, integrin α5β1 (Homo sapiens, UniProt P05556+P08648).
T2 construct: Platelets express several integrins, including αIIbβ3, αvβ3, α2β1, α5β1, and α6β1; endogenous in cells; host or cells: washed human platelets from blood of healthy volunteers
As to the kind of experiment: Platelet adhesion to fibronectin (in the presence of abciximab). It is filed as cell-based. The conditions noted are these: Table 2 selectivity, ligand Fibronectin. Here is the method:
as §1
as §2, with “The platelets in αvβ3-mediated binding to FN were pre-treated with 2 μg per mL ReoPro (abciximab, chimeric 7E3 Fab; Centocor, Malvern Pa.) for 20 minutes at RT.” left out

The mark [1] stands for this setting: Compounds Produced in Accordance with Scheme 2.
[2] abbreviates: Table 1, washed human platelets, soluble type I collagen, 30 min at 37° C.

Each structure is given as a SMILES string. Bounds are passed on as bounds.

T2 sequence (P08648 42-894 limits assumed): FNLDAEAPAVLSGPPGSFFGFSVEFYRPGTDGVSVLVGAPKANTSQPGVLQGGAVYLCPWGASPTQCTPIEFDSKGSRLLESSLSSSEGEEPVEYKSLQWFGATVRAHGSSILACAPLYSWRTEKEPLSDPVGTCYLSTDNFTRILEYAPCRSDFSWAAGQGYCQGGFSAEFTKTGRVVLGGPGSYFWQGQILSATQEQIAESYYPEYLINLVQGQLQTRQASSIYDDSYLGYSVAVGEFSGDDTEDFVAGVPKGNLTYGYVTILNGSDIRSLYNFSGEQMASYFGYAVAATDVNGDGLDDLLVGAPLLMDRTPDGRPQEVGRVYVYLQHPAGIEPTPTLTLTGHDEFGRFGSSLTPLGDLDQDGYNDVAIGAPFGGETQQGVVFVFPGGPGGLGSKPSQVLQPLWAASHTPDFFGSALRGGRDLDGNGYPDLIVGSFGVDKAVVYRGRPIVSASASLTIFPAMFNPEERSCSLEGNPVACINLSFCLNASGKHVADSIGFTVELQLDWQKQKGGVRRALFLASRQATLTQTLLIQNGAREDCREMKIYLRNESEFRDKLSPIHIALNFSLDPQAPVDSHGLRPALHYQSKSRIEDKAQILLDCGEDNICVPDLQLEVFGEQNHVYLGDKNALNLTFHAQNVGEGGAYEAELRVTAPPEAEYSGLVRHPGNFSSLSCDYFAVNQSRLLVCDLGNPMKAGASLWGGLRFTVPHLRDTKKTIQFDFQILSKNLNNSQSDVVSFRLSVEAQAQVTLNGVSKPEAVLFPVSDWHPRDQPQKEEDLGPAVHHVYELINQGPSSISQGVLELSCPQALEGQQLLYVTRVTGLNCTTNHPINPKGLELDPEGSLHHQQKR
T2 sequence (P08648 895-1049 limits assumed): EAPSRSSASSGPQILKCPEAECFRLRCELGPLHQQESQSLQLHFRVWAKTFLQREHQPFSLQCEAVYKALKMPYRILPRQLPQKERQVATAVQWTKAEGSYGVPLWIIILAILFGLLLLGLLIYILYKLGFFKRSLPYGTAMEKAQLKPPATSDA
T2 sequence (P05556 21-798): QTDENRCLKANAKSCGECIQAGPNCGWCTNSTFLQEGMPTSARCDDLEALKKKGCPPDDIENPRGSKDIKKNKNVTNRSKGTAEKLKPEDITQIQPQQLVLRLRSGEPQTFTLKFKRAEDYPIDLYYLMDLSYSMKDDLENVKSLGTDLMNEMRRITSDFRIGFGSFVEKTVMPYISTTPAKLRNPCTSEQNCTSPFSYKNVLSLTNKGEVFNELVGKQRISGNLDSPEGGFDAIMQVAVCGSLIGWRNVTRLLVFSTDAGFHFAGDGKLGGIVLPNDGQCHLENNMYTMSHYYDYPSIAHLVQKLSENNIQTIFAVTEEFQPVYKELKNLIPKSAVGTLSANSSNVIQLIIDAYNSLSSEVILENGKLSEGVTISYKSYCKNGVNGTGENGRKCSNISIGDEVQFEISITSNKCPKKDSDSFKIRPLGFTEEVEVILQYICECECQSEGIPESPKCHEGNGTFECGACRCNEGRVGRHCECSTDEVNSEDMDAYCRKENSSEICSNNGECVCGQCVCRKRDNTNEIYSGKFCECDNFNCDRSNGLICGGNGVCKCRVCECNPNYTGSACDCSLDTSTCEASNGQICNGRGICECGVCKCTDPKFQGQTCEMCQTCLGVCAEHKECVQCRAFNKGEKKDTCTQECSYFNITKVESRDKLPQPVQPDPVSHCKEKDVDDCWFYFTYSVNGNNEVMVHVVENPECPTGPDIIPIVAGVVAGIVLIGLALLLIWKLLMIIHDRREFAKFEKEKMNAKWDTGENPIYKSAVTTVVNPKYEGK
T1 sequence (P17301 30-1181): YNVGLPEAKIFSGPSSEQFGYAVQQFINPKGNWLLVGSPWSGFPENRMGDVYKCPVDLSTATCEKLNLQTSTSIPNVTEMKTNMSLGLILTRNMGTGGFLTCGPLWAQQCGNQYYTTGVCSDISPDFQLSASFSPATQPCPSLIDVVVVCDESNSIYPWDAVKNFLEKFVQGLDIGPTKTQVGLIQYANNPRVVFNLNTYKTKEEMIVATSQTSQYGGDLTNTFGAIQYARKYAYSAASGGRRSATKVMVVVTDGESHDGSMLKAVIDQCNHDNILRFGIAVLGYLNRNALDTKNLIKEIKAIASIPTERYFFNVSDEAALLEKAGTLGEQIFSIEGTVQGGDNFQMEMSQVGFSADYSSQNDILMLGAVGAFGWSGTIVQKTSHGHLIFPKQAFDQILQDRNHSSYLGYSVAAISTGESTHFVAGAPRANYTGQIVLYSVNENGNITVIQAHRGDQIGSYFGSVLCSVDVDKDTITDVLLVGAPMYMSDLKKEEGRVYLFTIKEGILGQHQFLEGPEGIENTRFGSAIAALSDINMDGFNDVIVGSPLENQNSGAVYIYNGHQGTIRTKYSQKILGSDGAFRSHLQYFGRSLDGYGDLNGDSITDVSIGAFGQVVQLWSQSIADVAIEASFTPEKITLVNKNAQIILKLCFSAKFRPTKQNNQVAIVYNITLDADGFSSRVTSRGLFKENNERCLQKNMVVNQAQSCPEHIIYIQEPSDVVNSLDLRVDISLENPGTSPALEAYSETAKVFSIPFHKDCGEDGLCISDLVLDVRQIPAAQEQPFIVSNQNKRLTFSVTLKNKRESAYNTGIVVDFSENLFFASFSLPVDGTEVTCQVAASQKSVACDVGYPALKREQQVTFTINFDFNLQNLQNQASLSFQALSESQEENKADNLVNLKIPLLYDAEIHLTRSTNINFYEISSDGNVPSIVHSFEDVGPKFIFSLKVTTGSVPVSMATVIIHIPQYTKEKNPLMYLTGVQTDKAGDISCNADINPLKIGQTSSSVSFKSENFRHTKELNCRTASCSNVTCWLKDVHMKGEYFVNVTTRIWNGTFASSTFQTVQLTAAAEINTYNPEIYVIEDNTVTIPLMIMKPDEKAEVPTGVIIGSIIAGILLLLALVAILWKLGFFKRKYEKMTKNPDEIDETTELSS
T1 sequence (P05556 21-798): as the sequence (P05556 21-798) above

What is called IC50 is the midpoint of a concentration-inhibition curve. Molecule `O=C(NCc1ccccc1)NCC(NC(=O)C1CCN1S(=O)(=O)c1ccccc1)C(=O)O` (centres unmarked) [Compound 24, 2-[(1-Benzenesulfonyl-azetidine-2-carbonyl)-amino]-3-(3-benzyl-ureido)-propionic acid] showed a concentration for half-maximal inhibition (IC50) at integrin α2β1 (setting [1]) of 215 nM. `C[C@H](NC(=O)NC[C@H](NC(=O)C1N(S(=O)(=O)c2ccccc2)CSC1(C)C)C(=O)O)c1ccccc1` (some centres unmarked) [Compound 8]: at integrin α2β1 (setting [2]), the IC50 was > 500 nM. Take `CC1(C)SCN(S(=O)(=O)c2ccccc2)C1C(=O)N[C@@H](CNC(=O)NCc1ccc(Cl)cc1)C(=O)O` (some centres unmarked) [Compound 15]: the IC50 is > 1000 nM on integrin α5β1 and 6 nM at integrin α2β1 (setting [2]). In the same order, the values of `Cc1cccc(CNC(=O)NC[C@H](NC(=O)C2N(S(=O)(=O)c3ccccc3)CSC2(C)C)C(=O)O)c1` (some centres unmarked) [Compound 10] are > 1000 nM and 8 nM. Take `CC1(C)SCN(S(=O)(=O)c2ccccc2)C1C(=O)N[C@@H](CNC(=O)NCC(c1ccccc1)c1ccccc1)C(=O)O` (some centres unmarked) [Compound 20]: the IC50 on integrin α2β1 (setting [2]) was > 2000 nM.

On to `CC1(C)SCN(S(=O)(=O)c2ccccc2)C1C(=O)N[C@@H](CNC(=O)NCC1CCCCC1)C(=O)O` (some centres unmarked) [Compound 23], for which the IC50 on integrin α2β1 (setting [2]) is 28 nM.

Molecule `CC(C)(C)CNC(=O)NC[C@H](NC(=O)C1N(S(=O)(=O)c2ccccc2)CSC1(C)C)C(=O)O` (some centres unmarked) [Compound 19] yielded a concentration for half-maximal inhibition (IC50) at integrin α2β1 (setting [2]) of 15 nM.

As to `CC1OCN(S(=O)(=O)c2ccccc2)C1C(=O)NC(CNC(=O)NCc1ccccc1)C(=O)O` (centres unmarked) [Compound 27, 2-[(3-Benzenesulfonyl-5-methyl-oxazolidine-4-carbonyl)-amino]-3-(3-benzyl-ureido)-propionic acid], the IC50 at integrin α2β1 (setting [1]) came out at 12 nM. Regarding `CC1(C)SCN(S(=O)(=O)c2ccccc2)C1C(=O)N[C@@H](CNC(=O)NCc1ccc(Br)cc1)C(=O)O` (some centres unmarked) [Compound 16], the IC50 on integrin α2β1 (setting [2]) is 4 nM.

Consider `CC1(C)SCN(S(=O)(=O)c2ccccc2)C1C(=O)N[C@@H](CNC(=S)NCc1ccccc1)C(=O)O` (some centres unmarked) [Compound 6], for which, on integrin α2β1 (setting [2]), the concentration for half-maximal inhibition (IC50) is 7 nM.

With `CC1(C)SCN(S(=O)(=O)c2ccccc2)C1C(=O)N[C@@H](CNC(=O)NCCc1ccccc1)C(=O)O` (some centres unmarked) [Compound 22], on integrin α2β1 (setting [2]), the IC50 amounted to 133 nM. The molecule `CC1(C)SCN(S(=O)(=O)c2ccccc2)C1C(=O)N[C@@H](CNC(=O)NCc1ccc(C(F)(F)F)cc1)C(=O)O` (some centres unmarked) [Compound 17] showed an IC50 on integrin α2β1 (setting [2]) of 41 nM. Consider `C[C@@H](NC(=O)NC[C@H](NC(=O)C1N(S(=O)(=O)c2ccccc2)CSC1(C)C)C(=O)O)c1ccccc1` (some centres unmarked) [Compound 7], for which the “greater potency of (R) conformation (7) than (S) conformation (8)” value at integrin α2β1 (7 versus 8, platelet adhesion to type I collagen) was > 25 fold. Moreover, the IC50 at integrin α2β1 (setting [2]) is 22 nM. Molecule `CC1(C)SCN(S(=O)(=O)c2ccccc2)C1C(=O)N[C@@H](CNC(=O)NC(c1ccccc1)c1ccccc1)C(=O)O` (some centres unmarked) [Compound 21] gave an IC50 at integrin α2β1 (setting [2]) of 320 nM. `Cc1ccc(CNC(=O)NC[C@H](NC(=O)C2N(S(=O)(=O)c3ccccc3)CSC2(C)C)C(=O)O)cc1` (some centres unmarked) [Compound 11] gave a half-inhibitory concentration (IC50) at integrin α2β1 (setting [2]) of 6 nM. For `Cc1ccccc1CNC(=O)NC[C@H](NC(=O)C1N(S(=O)(=O)c2ccccc2)CSC1(C)C)C(=O)O` (some centres unmarked) [Compound 9], the concentration for half-maximal inhibition (IC50) at integrin α5β1 was > 1000 nM; on integrin α2β1 (setting [2]), 4 nM.
